Measured values published in patent publication US20070254895A1, “Crystalline solvate of glucokinase activator” (priority 2006, published 2007).
Where “and” joins values, the source holds several entries; their conditions need not be identical. Identical values can stand only once.

Assay: Stability samples of IPA solvate analyzed for IPA content and heat of fusion
Assay type: physicochemical
Experimental: Differential scanning calorimetry was performed using Perkin Elmer DSC-7 and Diamond DSC, using sealed aluminum pan with a hole in the lid. Sample was heated at a rate of 10° C./min.
The stability sample obtained at various time points and conditions were analyzed for the IPA level and heat of fusion (Table 6). These two variables were plotted against each other to see the correlation (FIG. 17).
Sample was stored in a double PE bag with either metal drum or fiber drum as the container.

[1] = 40° C./75% RH/Fiber drum, double PE bag, 1 month

IPA (% w/w) (25° C./60% RH/Metal, 3 months)	ΔH (J/g) heat of fusion (25° C./60% RH/Metal, 3 months) [J/g]	IPA (% w/w) (25° C./60% RH/Metal, 6 months)	ΔH (J/g) heat of fusion (25° C./60% RH/Metal, 6 months) [J/g]	IPA (% w/w) (40° C./75% RH/Metal, 1 month)	ΔH (J/g) heat of fusion (40° C./75% RH/Metal, 1 month)	IPA (% w/w) (40° C./75% RH/Metal, 3 months)	ΔH (J/g) heat of fusion (40° C./75% RH/Metal, 3 months)	IPA (% w/w) (40° C./75% RH/Metal, 6 months)	ΔH (J/g) heat of fusion (40° C./75% RH/Metal, 6 months)	IPA (% w/w) (50° C./Metal, 1 month)	ΔH (J/g) heat of fusion (50° C./Metal, 1 month)	SMILES	other results
12	102.665	11.9	101.346	11.1	89.35 J/g	7.3	53.712 J/g and 51.302 J/g and 47.200 J/g	5	32.201 J/g and 29.011 J/g and 26.128 J/g	12	102.033 J/g and 99.554 J/g	CC(C)O.CS(=O)(=O)c1ccc([C@@H](C[C@H]2CCC(=O)C2)C(=O)Nc2cnccn2)cc1Cl [Lot 1]	IPA (% w/w) (5° C./Fiber, 6 months): 12.2 % w/w; ΔH (J/g) heat of fusion (5° C./Fiber, 6 months): 104.917 J/g; IPA (% w/w) (25° C./60% RH/Fiber, 3 months): 12 % w/w; ΔH (J/g) heat of fusion (25° C./60% RH/Fiber, 3 months): 99.861 J/g; IPA (% w/w) (25° C./60% RH/Fiber, 6 months): 12 % w/w; ΔH (J/g) heat of fusion (25° C./60% RH/Fiber, 6 months): 98.112 J/g; IPA (% w/w) (30° C./60% RH/Fiber, 10 months): 11.2 % w/w; ΔH (J/g) heat of fusion (30° C./60% RH/Fiber, 10 months): 87.929 J/g; IPA (% w/w) (30° C./60% RH/Metal, 10 months): 11.5 % w/w; ΔH (J/g) heat of fusion (30° C./60% RH/Metal, 10 months): 99.538 J/g; IPA (% w/w) [1]: 8.9 % w/w; ΔH (J/g) heat of fusion [1]: 65.084 J/g; IPA (% w/w) (40° C./75% RH/Fiber, 3 months): 4.4 % w/w; ΔH (J/g) heat of fusion (40° C./75% RH/Fiber, 3 months): 28.733 J/g and 29.404 J/g and 26.416 J/g and 24.713 J/g; IPA (% w/w) (40° C./75% RH/Fiber, 6 months): 4 % w/w; ΔH (J/g) heat of fusion (40° C./75% RH/Fiber, 6 months): 26.529 J/g; IPA (% w/w) (50° C./Fiber, 1 month): 11.8 % w/w; ΔH (J/g) heat of fusion (50° C./Fiber, 1 month): 105.445 J/g
12	104.847	12	102.406	11.6	105.006 J/g and 102.972 J/g	11.3	103.326 J/g and 103.52 J/g	8.4	65.867 J/g and 67.851 J/g and 61.796 J/g	12	100.639 J/g	CC(C)O.CS(=O)(=O)c1ccc([C@@H](C[C@H]2CCC(=O)C2)C(=O)Nc2cnccn2)cc1Cl [Lot 3]	IPA (% w/w) (5° C./Metal, 3 months): 12.1 % w/w; ΔH (J/g) heat of fusion (5° C./Metal, 3 months): 107.801 J/g; IPA (% w/w) (5° C./Metal, 6 months): 12.1 % w/w; ΔH (J/g) heat of fusion (5° C./Metal, 6 months): 106.157 J/g
